Results from patent publication US8394775B2 (Amorepacific Corporation, priority 2005, dated 2013).

Assays:
[1] = test system: collagenase; assay: Inhibition of collagenase expression in human fibroblasts; assay type: cell-based; details: molar concentration of 10^−4, 24 hours, compared to 100 of the non-treatment group
Procedure: (§1) Firstly, human fibroblasts were seeded in a 96-well microtiter plate containing DMEM supplemented with 2.5% fetal bovine serum at a level of 5000 cells per well and cultured until they grew up to 90%.
Then, the culture fluid was examined for formation of collagenase using a commercially available collagenase measuring kit (Amorsham pharmacia, USA).
(§2) Firstly, the taken cell culture fluid was added to the 96-well plate having the primary collagenase antibody evenly applied and left for antigen-antibody reaction in a thermostat for 3 hours. After 3 hours, the secondary collagen antibody having a chromophore bonded thereto was added to the 96-well plate and left for reaction for 15 minutes. After 15 minutes, a color developing agent was added and left for 15 minutes. Then, 1M sulphuric acid was added to quit the reaction (color development), upon which the color of the reaction became yellow. The yellow level varied according to the progress of the reaction.
(§3) The absorption of the 96-well plate of the yellow color was measured at 405 nm using a spectrophotometer. The expression of collagenase was calculated according to the following Equation I. Here, the absorption of the control was the absorption of the cell culture fluid taken from the group which had not been treated with the test materials. Expression of collagenase (%) (A/B)×100 [Equation I] • (A: absorption of cells treated with the test materials B: absorption of control)
Meanwhile, the result of measurement of inhibition effect of the test materials on collagenase expression in human fibroblasts is shown in Table 4, in which in which the expression of collagenase is compared to 100 of the non-treatment group.

[2] = test system: procollagen type (I); assay: Promotion of collagen biosynthesis in fibroblasts (procollagen type (I) ELISA); assay type: cell-based; details: 24 hours, compared to 100 of the non-treatment group
Procedure: Firstly, fibroblasts (PromoCell, Germany) were seeded in a 24 well plate at a level of 10^5 per well and cultured until they grew up to 90%. […] The supernatant was taken and examined for increase and decrease of procollagen using procollagen type (I) ELISA kit (proc/; ollagen type (I)). The result is shown in Table 3, in which the synthesis is compared to 100 of the non-treatment group.

[3] = test system: elastase; assay: Inhibition of elastase expression in human fibroblasts; assay type: cell-based; details: molar concentration of 10^−4, 24 hours, compared to 100 of the non-treatment group
Procedure: as §1
Then, the culture fluid was examined for formation of elastase using a commercially available elastase measuring kit (Amorsham pharmacia, USA).
as §2, with “elastase” for “collagenase”
as §3, with “elastase” for “collagenase”, “II.” for “I.”, “elastase (%)=(A/B)×100” for “collagenase (%) (A/B)×100”, “II]” for “I]”
Meanwhile, the result of measurement of inhibition effect of the test materials on elastase expression in human fibroblasts is shown in Table 5, in which the expression of elastase is compared to 100 of the non-treatment group.

[4] = test system: pigment cells (Mel-Ab cell); assay: Inhibition of melanin synthesis using pigment cell of mouse; assay type: cell-based; details: 10 ppm for continuous 3 days, non-treatment group given as 100.0
Excerpt: Here, hydroquinone was a positive control.

[5] = test system: human skin; assay: Whitening effect on human skin after UV-induced darkening; assay type: in vivo; details: 1% applied on UV-darkened upper arm skin, 10 weeks, colorimeter
Procedure: Firstly, 12 healthy males were enlisted for the test. They had opaque tape with a 1.5 cm hole attached on the upper arm. UV rays 1.5 to 2 times greater than the minimal erythema dose were irradiated to induce darkening of the skin.
For 10 weeks, the change was observed. Every 1 week, the color of the skin was measured by colorimeter CR2002 (Japan, Minolta)
Then, the difference of skin color (ΔL*) between the point when the application of the test material was initiated and the point when the application of the test material was completed was calculated according to the following equation and the result is shown in Table 7. Meanwhile, the whitening effect was determined by comparison of ΔL* between the sample applied part and the control. When ΔL* value is about 2, the whitening of the pigmentation was significant. When ΔL* is over 1.5, it was considered that the sample had whitening effect. ΔL*=(L*at the point when the application is completed)−(L*at the point when the application is initiated) [Equation 4]

[6] = test system: Human keratinocytes HaCaT cell line; assay: Inhibition of reactive oxygen species (ROS) production using fluorescent material (DCFH-DA), UVB irradiation; assay type: cell-based; details: HaCaT cells, UVB 30 mJ/cm^2, DCF fluorescence
Procedure: The cell lines used in the test was Human keratinocytes HaCaT cell line. The cells were distributed to a 96 well black plate for fluorescence measurement at 2.0×10^4 per each well and cultured in DMEM (Dulbeccos Modification of Eagles Medium, FBS 10%) supplemented with penicillin/streptomycin at 37° C., 5% CO2 for 1 day, followed by treatment with test samples. Serum free DMEM (FBS free) supplemented with penicillin/streptomycin as shown in Table 2 was used for cultivation of the medium which had been treated with samples. The cultivation was performed at 37° C., 5% CO2 for 1 day.
After cultivation of 24 hours with test samples, the plate was washed with HCSS (HEPES-buffered control salt solution) to remove the medium and the HCSS was treated with 100 μl of 20 μM DCFH-DA (2′,7′-dichlorodihydro-fluorescein diacetate, Molecular Probes, Inc). Then, the plate was kept under conditions of 37° C., 5% CO2 for 20 minutes and washed with HCSS. Next, the plate was treated with 100 μl of HCSS comprising samples at different concentrations and the fluorescence intensity of DCF (dichlorofluorescein), which had been oxidized […] at the early stage, was measured using a fluorescent plate reader (Ex=485 nm, Em=530 nm). The fluorescence, right after the irradiation of UVB (30 mJ/cm^2) or 3 hours later of the irradiation, was measured using a fluorescent plate reader (Ex=485 nm, Em=530 nm).
As control, Trolox was used.

[7] = DPPH test of anti-oxidant effect; assay type: biochemical; details: read-out: DPPH analysis IC50 (concentration, upon which the absorption is decreased to 50%); 100 μM DPPH in ethanol, 37° C., 30 minutes, absorption at 540 nm
Procedure: A method for evaluating anti-oxidant effect through change of absorption generated by reduction of the organic radical DPPH (1,1-diphenyl-2-picryl hydrazyl) (while anti-oxidant is oxidized) is used. The change of absorption, which was decreased when the oxidization of DPPH was inhibited, was measured, as compared to the control.
The absorption was measured at 540 nm. The control sample was synthesized anti-oxidant Trolox, commonly used.

Row | Compound | Expression of collagenase (%) [1] [%] | Synthesis (%) of procollagen [2] [%] | Expression of elastase (%) [3] [%] | Melanin content (% of untreated control) [4] [%] | Whitening effect (ΔL*) [5] | Inhibition effect on ROS production (control %) ([6]; 6.25 uM) [%] | Inhibition effect on ROS production (control %) ([6]; 12.5 uM) [%] | Inhibition effect on ROS production (control %) ([6]; 25 uM) [%] | Inhibition effect on ROS production (control %) ([6]; 50 uM) [%] | IC50 [7] [µM] | activity at 6.25 µM ([6]; Homo sapiens, light or radiation study, 6.25 uM, read-out: Inhibition effect on ROS production (control %)) [%] | activity at 12.5 µM ([6]; Homo sapiens, light or radiation study, 12.5 uM, read-out: Inhibition effect on ROS production (control %)) [%] | activity at 25 µM ([6]; Homo sapiens, light or radiation study, 25 uM, read-out: Inhibition effect on ROS production (control %)) [%] | activity at 50 µM ([6]; Homo sapiens, light or radiation study, 50 uM, read-out: Inhibition effect on ROS production (control %)) [%]
1 | O=C(O[C@@H]1Cc2c(O)cc(O)cc2O[C@@H]1c1cc(O)c(O)c(O)c1)c1cc(O)c(O)c(O)c1 [EGCG, reference compound] | 60 | 125 | 68 | – | – | – | – | – | – | – | – | – | – | –
2 | Oc1ccc(O)cc1 [Hydroquinone, hydroquinone, reference compound] | – | – | – | 41.1 | 1.90 ± 0.11 | – | – | – | – | – | – | – | – | –
3 | COc1ccc(-c2oc3c(CC=C(C)C)c(O[C@@H]4O[C@H](CO)[C@@H](O)[C@H](O)[C@H]4O)cc(O)c3c(=O)c2O[C@@H]2O[C@@H](C)[C@H](O)[C@@H](O)[C@H]2O)cc1 [Icariin] | 81 | 117 | 87 | 84.5 | 1.10 ± 0.13 | 98.1 | 89.7 | 88.6 | 86.3 | – | – | – | – | –
4 | COc1ccc(-c2oc3c(CC=C(C)C)c(O)cc(O)c3c(=O)c2O[C@@H]2O[C@H](C)[C@@H](O)[C@H](O)[C@@H]2O)cc1 [Icariside II] | 66 | 138 | 63 | 38.2 | 1.83 ± 0.25 | 63.2 | 62.0 | 56.6 | 46.6 | 7.15 | – | – | – | –
5 | COc1ccc(-c2oc3c(CC=C(C)C)c(O[C@@H]4O[C@H](CO)[C@@H](O)[C@H](O)[C@H]4O)cc(O)c3c(=O)c2O)cc1 [Icariside I] | 64 | 145 | 56 | 38.6 | 1.88 ± 0.17 | 65.6 | 61.4 | 54.8 | 43.8 | 7.78 | – | – | – | –
6 | COc1ccc(-c2oc3c(CC=C(C)C)c(O)cc(O)c3c(=O)c2O)cc1 [Icaritin] | 66 | 146 | 55 | 39.5 | 1.89 ± 0.25 | 68.2 | 61.5 | 51.7 | 43.2 | 6.75 | – | – | – | –
7 | Cc1c(C)c2c(c(C)c1O)CCC(C)(C(=O)O)O2 (stereo not shown) [Trolox, reference compound] | – | – | – | – | – | – | – | – | – | 8.63 | 76.9 | 74.6 | 73.3 | 58.5
8 | tocopherol [reference compound] | 75 | 118 | 88 | – | – | – | – | – | – | – | – | – | – | –
